Data taken from US6596751B2, “α-substituted carboxylic acid derivatives” (Sankyo Company Limited, priority 1999, dated 2003).
Structures can show the parent of a compound that is named as a salt.

Test system: KK mice (4-5 months old) suffering from diabetes mellitus
Assay: Hypoglycemic activity: blood sugar lowering in diabetic KK mice fed the test compound
Type: in vivo
Settings: 4 per group, powdered feed containing 0.01% of test compound for 3 days, plasma glucose vs control group
Excerpt: Blood was collected from the tail veins of KK mice (4-5 months old) suffering from diabetes mellitus, and it was subjected to an assay of the blood sugar level. The mice were divided in groups (4 mice per group) as to have equal blood sugar levels on average in each group. Powdered mouse feed (F-1, Funabashi Farm) containing 0.01% of a test compound was given the mice for 3 days. Those mice groups fed with the test compound were referred to as “drug treated group”. Further, those groups fed with powdered feed free of the test compound were referred to as “control group”. Blood was collected from the tail veins of the mice 3 days later and was subjected to a centrifuge, and the glucose concentration in the resultant plasma was assayed with a glucose analyzer (Glucoloader, A&T Company). The average blood sugar lowering rate was calculated from the following formula:
Blood sugar lowering rate (%)=(Average blood sugar level in control group−Average blood sugar level in drug treated group)×100/Blood sugar level in control group

| Structure (SMILES) | Blood sugar lowering rate (%) |
| --- | --- |
| Cc1cc(Oc2ccc3nc(COc4ccc(C[C@H](Nc5ccccc5C(=O)c5ccccc5)C(=O)O)cc4)n(C)c3c2)cc(C)c1N [Example 20, 4-[6-(4Amino-3 ,5dimethylphenoxy)-1-methyl-1H-benzimidazol-2-ylmethoxy]-N-(2-benzoylphenyl)phenylalanine dihydrochloride] | 40.0 |
| COC(=O)[C@H](Cc1ccc(OCc2nc3ccc(OC)cc3n2C)cc1)Nc1ccccc1C(=O)c1ccccc1.Cl [Example 16, N-(2-Benzoylphenyl)-4-(6-methoxy-1-methyl-1H-benzimidazol-2-ylmethoxy)phenylalanine methyl ester hydrochloride] | 32.1 |
| Cn1c(COc2ccc(CC(OCc3ccc(F)cc3)C(=O)O)cc2)nc2ccc(Sc3cc(C(C)(C)C)c(O)c(C(C)(C)C)c3)cc21 (centres unmarked) [Example 4, 3-[4-[6-(3,5-Di-t-butyl-4-hydroxyphenylthio)-1-methyl-1H-benzimidazol-2-ylmethoxy]phenyl]-2-(4-fluorobenzyloxy)propionic acid] | 40.8 |
| CCOC(Cc1ccc(OCc2nc3ccc(OC)cc3n2C)cc1)C(=O)O.Cl (centres unmarked) [Example 9, 2-Ethoxy-3-[4-(1-methyl-6-methoxy-1H-benzimidazol-2-ylmethoxy)phenyl]propionic acid hydrochloride] | 48.4 |
| Cn1c(COc2ccc(CC(OCc3ccc(F)cc3)C(=O)O)cc2)nc2ccc(Oc3ccc(C45CC6CC(CC(C6)C4)C5)cc3)cc21 (centres unmarked) [Example 2, 3-[4-[6-(4-Adamantan-1-ylphenoxy)-1-methyl-1H-benzimidazol-2-ylmethoxy]phenyl]-2-(4-fluorobenzyloxy)propionic acid] | 58.5 |
